Laboratory results as given in patent publication US20230085307A1, “PYRIDAZINONE COMPOUND AND HERBICIDE” (NISSAN CHEMICAL CORPORATION, priority 2019, published 2023).

Legend:
[1] = system: persian speedwell; assay: Test Example 4: herbicidal effect by soil treatment (Table 19, symbol R); type: in vivo, Persian speedwell (Veronica persica); settings: 320 g/ha
How it was run: (§1)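 Pre-emergence style soil spray: seeds under ~1.5 cm sterilized diluvial soil received a uniform coat of emulsion diluted to the predetermined herbicide amount. Greenhouse 25–30° C; readout at week three on previously defined criteria.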

[2] = system: barnyard grass; assay: Test Example 3: herbicidal effect by foliage application, Wagner pot (Table 18, symbol H); type: in vivo, barnyard grass (Echinochloa crus-galli); settings: 320 g/ha
How it was run: (§2)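 Plants were sown in alluvial soil held under 0.1–0.5 cm standing water and grown 14 days in a greenhouse at 25–30 °C. An emulsifiable formulation, water-diluted to the set dose, was then sprayed onto the foliage, and effects were scored three weeks later using previously defined criteria.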

[3] = system: chickweed; assay: Test Example 4: herbicidal effect by soil treatment (Table 19, symbol P); type: in vivo, common chickweed (Stellaria media); settings: 320 g/ha
How it was run: as §1

[4] = system: barnyard grass; assay: Test Example 4: herbicidal effect by soil treatment (Table 19, symbol H); type: in vivo, barnyard grass (Echinochloa crus-galli); settings: 320 g/ha
How it was run: as §1

[5] = system: green foxtail; assay: Test Example 4: herbicidal effect by soil treatment (Table 19, symbol G); type: in vivo, green foxtail (Setaria viridis); settings: 320 g/ha
How it was run: as §1

[6] = system: Italian ryegrass; assay: Test Example 4: herbicidal effect by soil treatment (Table 19, symbol K); type: in vivo, Italian ryegrass (Lolium multiflorum); settings: 320 g/ha
How it was run: as §1

[7] = system: barnyard grass; assay: Test Example 5: herbicidal effect by foliage application, plastic box (Table 20, symbol H); type: in vivo, barnyard grass (Echinochloa crus-galli); settings: foliage application, 320 g/ha, 3 weeks after application
How it was run: (§3)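 Plants were sown into sterilized diluvial soil under about 1.5 cm cover and kept in a greenhouse at 25° C. to 30° C. Fourteen days on, foliage received an even spray of the diluted emulsion. Herbicidal or crop effect was judged three weeks afterwards.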

[8] = system: velvetleaf; assay: Test Example 4: herbicidal effect by soil treatment (Table 19, symbol M); type: in vivo, velvetleaf (Abutilon theophrasti); settings: 320 g/ha
How it was run: as §1

[9] = system: wild oat; assay: Test Example 5: herbicidal effect by foliage application, plastic box (Table 20, symbol I); type: in vivo, wild oat (Avena fatua); settings: foliage application, 320 g/ha, 3 weeks after application
How it was run: as §3

[10] = system: rice flat sedge; assay: Test Example 3: herbicidal effect by foliage application, Wagner pot (Table 18, symbol E); type: in vivo, rice flat sedge (Cyperus iria); settings: 320 g/ha
How it was run: as §2

[11] = system: blackgrass; assay: Test Example 4: herbicidal effect by soil treatment (Table 19, symbol J); type: in vivo, blackgrass (Alopecurus myosuroides); settings: 320 g/ha
How it was run: as §1

[12] = system: Chinese sprangletop; assay: Test Example 3: herbicidal effect by foliage application, Wagner pot (Table 18, symbol D); type: in vivo, chinese sprangletop (Leptochloa chinensis); settings: 320 g/ha
How it was run: as §2

[13] = system: blackgrass; assay: Test Example 5: herbicidal effect by foliage application, plastic box (Table 20, symbol J); type: in vivo, blackgrass (Alopecurus myosuroides); settings: foliage application, 320 g/ha, 3 weeks after application
How it was run: as §3

[14] = system: wild oat; assay: Test Example 4: herbicidal effect by soil treatment (Table 19, symbol I); type: in vivo, wild oat (Avena fatua); settings: 320 g/ha
How it was run: as §1

[15] = system: lambsquarters; assay: Test Example 4: herbicidal effect by soil treatment (Table 19, symbol O); type: in vivo, lambsquarters (Chenopodium album); settings: 320 g/ha
How it was run: as §1

[16] = system: windgrass; assay: Test Example 4: herbicidal effect by soil treatment (Table 19, symbol L); type: in vivo, windgrass (Apera spica-venti); settings: 320 g/ha
How it was run: as §1

[17] = system: Japanese bulrush; assay: Test Example 1: herbicidal activity, application before weed generation under submerged conditions (Table 16, symbol B); type: in vivo, Japanese bulrush (Schoenoplectus juncoides); settings: 320 g/ha applied herbicide
How it was run: (§4)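 Emulsion formulation, water-diluted to set dose, was put onto the flooded surface (4 cm depth, alluvial soil) the same day weeds were sown and 2.5-leaf rice transplanted. After 3 weeks at 25-30 °C under glass, each species was rated 0 (≤5% kill) to 5 (≥90% kill).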

[18] = system: persian speedwell; assay: Test Example 5: herbicidal effect by foliage application, plastic box (Table 20, symbol R); type: in vivo, Persian speedwell (Veronica persica); settings: foliage application, 320 g/ha, 3 weeks after application
How it was run: as §3

[19] = system: southern crabgrass; assay: Test Example 5: herbicidal effect by foliage application, plastic box (Table 20, symbol F); type: in vivo, southern crabgrass (Digitaria ciliaris); settings: foliage application, 320 g/ha, 3 weeks after application
How it was run: as §3

[20] = system: lambsquarters; assay: Test Example 5: herbicidal effect by foliage application, plastic box (Table 20, symbol O); type: in vivo, lambsquarters (Chenopodium album); settings: foliage application, 320 g/ha, 3 weeks after application
How it was run: as §3

[21] = system: green foxtail; assay: Test Example 5: herbicidal effect by foliage application, plastic box (Table 20, symbol G); type: in vivo, green foxtail (Setaria viridis); settings: foliage application, 320 g/ha, 3 weeks after application
How it was run: as §3

[22] = system: oval-leafed pondweed; assay: Test Example 1: herbicidal activity, application before weed generation under submerged conditions (Table 16, symbol C); type: in vivo, oval-leafed pondweed (Monochoria vaginalis); settings: 320 g/ha applied herbicide
How it was run: as §4

[23] = system: late watergrass; assay: Test Example 1: herbicidal activity, application before weed generation under submerged conditions (Table 16, symbol A); type: in vivo, late watergrass (Echinochloa oryzicola); settings: 320 g/ha applied herbicide
How it was run: as §4

[24] = system: redroot pigweed; assay: Test Example 4: herbicidal effect by soil treatment (Table 19, symbol N); type: in vivo, redroot pigweed (Amaranthus retroflexus); settings: 320 g/ha
How it was run: as §1

[25] = system: velvetleaf; assay: Test Example 5: herbicidal effect by foliage application, plastic box (Table 20, symbol M); type: in vivo, velvetleaf (Abutilon theophrasti); settings: foliage application, 320 g/ha, 3 weeks after application
How it was run: as §3

[26] = system: southern crabgrass; assay: Test Example 4: herbicidal effect by soil treatment (Table 19, symbol F); type: in vivo, southern crabgrass (Digitaria ciliaris); settings: 320 g/ha
How it was run: as §1

[27] = system: windgrass; assay: Test Example 5: herbicidal effect by foliage application, plastic box (Table 20, symbol L); type: in vivo, windgrass (Apera spica-venti); settings: foliage application, 320 g/ha, 3 weeks after application
How it was run: as §3

[28] = system: Italian ryegrass; assay: Test Example 5: herbicidal effect by foliage application, plastic box (Table 20, symbol K); type: in vivo, Italian ryegrass (Lolium multiflorum); settings: foliage application, 320 g/ha, 3 weeks after application
How it was run: as §3

SMILES	herbicidal effect rating, R: persian speedwell [1]	herbicidal effect on H (barnyard grass), rating 0-5 [2]	herbicidal effect rating, P: chickweed [3]	herbicidal effect rating, H: barnyard grass [4]	herbicidal effect rating, G: green foxtail [5]	herbicidal effect rating, K: Italian ryegrass [6]	effect on barnyard grass (H) [7]	herbicidal effect rating, M: velvetleaf [8]	effect on wild oat (I) [9]	herbicidal effect on E (rice flat sedge), rating 0-5 [10]	herbicidal effect rating, J: blackgrass [11]	herbicidal effect on D (Chinese sprangletop), rating 0-5 [12]	effect on blackgrass (J) [13]	herbicidal effect rating, I: wild oat [14]	herbicidal effect rating, O: lambsquarters [15]	herbicidal effect rating, L: windgrass [16]	Herbicidal effect on B: Japanese bulrush (grade 0-5) [17]	effect on persian speedwell (R) [18]	effect on southern crabgrass (F) [19]	effect on lambsquarters (O) [20]	further results
Cc1nn(C)c(=O)c(-c2c(-c3ccc(F)cc3)sc3ccc(F)cc23)c1OC(=O)N1CCOCC1 [2-007]	0 (Herbicidal rate of 5% or less (almost no effect))	1 (Herbicidal rate of 5% or more and less than 20%)	0 (Herbicidal rate of 5% or less (almost no effect))	0 (Herbicidal rate of 5% or less (almost no effect))	2 (Herbicidal rate of 20% or more and less than 40%)	0 (Herbicidal rate of 5% or less (almost no effect))	0 (Herbicidal rate of 5% or less (almost no effect))	0 (Herbicidal rate of 5% or less (almost no effect))	0 (Herbicidal rate of 5% or less (almost no effect))	3 (Herbicidal rate of 40% or more and less than 70%)	0 (Herbicidal rate of 5% or less (almost no effect))	3 (Herbicidal rate of 40% or more and less than 70%)	0 (Herbicidal rate of 5% or less (almost no effect))	0 (Herbicidal rate of 5% or less (almost no effect))	0 (Herbicidal rate of 5% or less (almost no effect))	0 (Herbicidal rate of 5% or less (almost no effect))	0 (Herbicidal rate of 5% or less (almost no effect))	1 (Herbicidal rate of 5% or more and less than 20%)	0 (Herbicidal rate of 5% or less (almost no effect))	0 (Herbicidal rate of 5% or less (almost no effect))	effect on green foxtail (G) [21]: 0 (Herbicidal rate of 5% or less (almost no effect)); Herbicidal effect on C: oval-leafed pondweed (grade 0-5) [22]: 0 (Herbicidal rate of 5% or less (almost no effect)); Herbicidal effect on A: late watergrass (grade 0-5) [23]: 2 (Herbicidal rate of 20% or more and less than 40%); herbicidal effect rating, N: redroot pigweed [24]: 2 (Herbicidal rate of 20% or more and less than 40%); effect on velvetleaf (M) [25]: 0 (Herbicidal rate of 5% or less (almost no effect)); herbicidal effect rating, F: southern crabgrass [26]: 1 (Herbicidal rate of 5% or more and less than 20%); effect on windgrass (L) [27]: 0 (Herbicidal rate of 5% or less (almost no effect)); effect on Italian ryegrass (K) [28]: 0 (Herbicidal rate of 5% or less (almost no effect))
Cc1nn(C)c(=O)c(-c2c(-c3ccc(C(C)C)cc3)sc3ccc(F)cc23)c1O [2-014]	5 (Herbicidal rate of 90% or more (almost completely withered))	5 (Herbicidal rate of 90% or more (almost completely withered))	4 (Herbicidal rate of 70% or more and less than 90%)	4 (Herbicidal rate of 70% or more and less than 90%)	2 (Herbicidal rate of 20% or more and less than 40%)	4 (Herbicidal rate of 70% or more and less than 90%)	5 (Herbicidal rate of 90% or more (almost completely withered))	3 (Herbicidal rate of 40% or more and less than 70%)	2 (Herbicidal rate of 20% or more and less than 40%)	5 (Herbicidal rate of 90% or more (almost completely withered))	0 (Herbicidal rate of 5% or less (almost no effect))	5 (Herbicidal rate of 90% or more (almost completely withered))	4 (Herbicidal rate of 70% or more and less than 90%)	0 (Herbicidal rate of 5% or less (almost no effect))	5 (Herbicidal rate of 90% or more (almost completely withered))	3 (Herbicidal rate of 40% or more and less than 70%)	0 (Herbicidal rate of 5% or less (almost no effect))	5 (Herbicidal rate of 90% or more (almost completely withered))	5 (Herbicidal rate of 90% or more (almost completely withered))	5 (Herbicidal rate of 90% or more (almost completely withered))	effect on green foxtail (G) [21]: 5 (Herbicidal rate of 90% or more (almost completely withered)); Herbicidal effect on C: oval-leafed pondweed (grade 0-5) [22]: 0 (Herbicidal rate of 5% or less (almost no effect)); Herbicidal effect on A: late watergrass (grade 0-5) [23]: 3 (Herbicidal rate of 40% or more and less than 70%); herbicidal effect rating, N: redroot pigweed [24]: 5 (Herbicidal rate of 90% or more (almost completely withered)); effect on velvetleaf (M) [25]: 5 (Herbicidal rate of 90% or more (almost completely withered)); herbicidal effect rating, F: southern crabgrass [26]: 0 (Herbicidal rate of 5% or less (almost no effect)); effect on windgrass (L) [27]: 5 (Herbicidal rate of 90% or more (almost completely withered)); effect on Italian ryegrass (K) [28]: 5 (Herbicidal rate of 90% or more (almost completely withered))
